Patent US8044080B2, “Isoxazoline derivative and novel process for its preparation” (LG Life Sciences Ltd., priority 2005, dated 2011)

How the values were obtained:
[1] = system: LPS-Induced Acute Hepatitis in Mice; assay: Treatment effect on LPS-induced acute hepatitis in mice (blood plasma ALT activity); format: in vivo, Male Balb/c mice; details: Mus musculus, LPS/D-Gln model, plasma ALT 8 hours after drug injection
[2] = system: Fas Antibody-Induced Acute Hepatitis in Mice; assay: Treatment effect on Fas antibody-induced acute hepatitis in mice (blood plasma ALT activity); format: in vivo, Male Balb/c mice; details: Mus musculus, Fas antibody model, plasma ALT 8 hours after drug injection
[3] = Stability test of amorphous and crystalline form under severe condition (60° C.); format: physicochemical; details: after 28 days
From the text: Therefore, it should be understood that the crystalline form has better stability than the amorphous form enough to be used for the composition of inhibitor or therapeutic agent.

Work on CC(C)[C@@]1(C(=O)N[C@H]2CC(=O)O[C@]2(O)CF)CC(c2nccc3ccccc23)=NO1 [compound of formula (1), (4S,5S)-5-fluoromethyl-5-hydroxy-4-({[(5R)-5-isopropyl-3-(1-isoquinolinyl)-4,5-dihydro-5-isoxazolyl]carbonyl}amino)-2-dihydrofuranone] yielded an ED50 ([1]; intravenous administration) of 0.015 mg/kg, an ED50 ([1]; oral administration) of 0.02 mg/kg and an ED50 ([2]; intravenous administration) of 0.003 mg/kg. For the same compound, the ED50 ([2]; oral administration) was 0.018 mg/kg.

With CC(C)[C@@]1(C(=O)N[C@H]2CC(=O)O[C@]2(O)CF)CC(c2nccc3ccccc23)=NO1 [(4S,5S)-5-fluoromethyl-5-hydroxy-4-({[(5R)-5-isopropyl-3-(1-isoquinolinyl)-4,5-dihydro-5-isoxazolyl]carbonyl}amino)-2-dihydrofuranone] the “amount destroyed in stability test” value [3] was 50% and the “quantitative amount in stability test” value [3] was “not decreased at all”.
